# According to patent US6225478A, “Iridoid derivatives and neovascularization inhibitors containing the same as active ingredient” (Tsumura & Co., priority 1999, dated 2001):
# Tests used:
# [1] = test system: human umbilical-vein endothelial cells (HUVEC); experiment: Tube Formation Assay (TFA) Test, HUVEC in collagen gel; format: cell-based; conditions: Tables 75-83, 0.32 mM sample solution, method as for Compounds 1 through 60; for inhibition at 320 µM (stock): Homo sapiens, HUVEC, read-out: TFA Inhibition rate (%)
# Protocol: Furthermore, the sample liquids of compounds used in the CPA and CMA tests were prepared in the manner described below. Firstly, after weighing out each compound, a calculated amount of DMSO was added. After dissolving the compound in the DMSO, phosphate buffered physiological saline (PBS (-)) was added to bring the sample concentration to 1 mg/ml in PBS (-). The amount of DMSO used to dissolve the compounds was adjusted in advance to that the concentration of DMSO at that time was 5%. The resulting liquids were diluted 10-fold with 5% DMSO-PBS (-) solution to prepare sample solutions having a concentration of 0.1 mg/ml. In the TFA test, 320 μl of the prepared 1 mg/ml sample solutions were removed followed by addition of 680 μl of PBS (-) to prepare samples having a concentration of […]. Moreover, 100 μl of this solution was removed followed by addition of 900 μl of PBS (-) to dilute 10-fold and prepare samples having a concentration of 1 μg/ml. P [Cell Proliferation Assay (CPA) Test]
# To begin with, 8 volumes of Type 1-A cell matrix (manufactured by Gibco Co.), 1 volume of 10×M119, and 1 volume of reconstituted buffer [200 mM HEPES, 0.05 N sodium hydroxide, 260 mM sodium bicarbonate] were slowly mixed under cooling with ice while avoiding bubbling to form a collagen gel. This collagen gel was distributed in a NUNC 24-well plate at 310 μl/well followed by allowing to stand undisturbed for 2 hours at 37° C. to solidify the gel.
# Next, the 7th subculture of HUVEC (1×10^5 cells/ml) obtained from the first generation in the same manner as above were disseminated at 500 μl/well. The cells were cultured for 2 hours at 37° C. to allow the cells to make contact with the collagen. After then removing the medium by aspiration, 50 μl of sample solution were added followed by addition of 310 μl/well of freshly prepared collagen gel and culturing for 1 hour and 10 minutes at 37° C. to solidify the double-layer gel.
# 1 ml/well of M-199 medium containing 20% FCS, 30 ng /ml of b-FGF and 0.1 μM PMA were added to the wells followed by culturing for 20 hours at 37° C. in the presence of 5% CO2.
# Measurement of the lengths of the formed tubes was performed using the public domain NIH Image with a computer.
# Evaluation was performed by calculating the inhibition rate (%) of tube formation according to the following formula.
# Inhibition rate (%)=100-((formed tube length in presence of sample-formed tube length in presence of control (-))×100/(formed tube length in presence of control (+)-formed tube length in presence of control (-)))
# (§1) Samples were prepared using the present compounds of Compound No. I-60 through I-315. More specifically, 32 μl of a 20 mM sample solution dissolved in dimethylsulfoxide (DMSO) were removed and brought to a volume of 1 ml with phosphate-buffered saline (PBS) to prepare a sample solution having a concentration of 0.32 mM (containing 3.2% DMSO).
# The testing method used for these compounds was the same as that used for the compounds of Compound No. 1 through 60 previously described.
# HUFEC = experiment: Cell Migration Assay (CMA) Test, inhibitory rate with control (-) correction; format: cell-based, human; conditions: 125 μl of 0.32 mM sample solution in 4.0 ml medium, 80% or more = remarkable; for inhibition at 320 µM (stock): Homo sapiens, 24 h
# Protocol: as §1
# After disseminating the 7th subculture of […] obtained from the first generation at 4 ml/well (3.0×10^5 cells/well) in a collagen-coated 6-well plate (NUNC), the cells were cultured for 48 hours at 37° C. in the presence of 5% CO2. The cells reached nearly a completely confluent state as a result of this culturing.
# A double-edged, disposable razor blade was divided into four sections, of which one of those sections was pinched between a pair of forceps. Using this piece of razor blade, the cell surface in the above confluent state was scraped off.
# After washing the surface of the wells from which the cells had been scraped off with medium, 4.0 ml of fresh M199 (2+) medium were placed in the wells. 4.0 ml of M199 medium were added to the control (-) well.
# 125 μl of sample solution (0.32 mM, containing 3.2% dimethylsulfoxide) were added to the wells.
# 125 μl of PBS solution containing 3.2% dimethylsulfoxide were added to the control wells instead of sample. The cells were cultured for 24 hours at 37° C. in the presence of 5% CO2. After discarding the culture liquid, the cells were fixed for 30 minutes with methanol. Next, after […] the cells for 4 hours with Giemsa stain, the plates were washed with tap water and air dried.
# Measurement of cell migration was performed by microscopically counting the number of cells that had newly migrated within the range of a 1 mm×1 mm block. […] The total number of cells counted in blocks 1 through 5 were then totaled to determine the overall total number of cells. Four fields were counted for each well.
# Evaluation was performed determining the cell migration inhibitory rate (%) according to the following equation.
# Inhibitory rate=100-((number of migrating cells to which sample was added-number of migrating cells of control (-))×100/(number of migrating cells of control (+)-number of migrating cells of control (-)))
# If this inhibitory rate was 80% or more, cell migration was assessed as being remarkable.
SMILES,inhibition at 320 µM (stock) [1] [%],inhibition at 320 µM (stock) (HUFEC) [%],"TFA (inhibition rate, %) [1] [%]",CMA Inhibition rate (%) (HUFEC; 24 hours)
"CNC(=O)O[C@@H]1OC=C(C(=O)OC)[C@H]2CC=C(CF)C12 (stereo in doubt) [I-314, (1S,4aS,7aR)-7-(fluoromethyl)-1-(methylcarbamoyloxy)-1,4a,5,7a-tetrahydrocyclopenta [c] pyrane-4-carboxylic acid methylester]",9.4,47.2,–,–
"CNC(=O)O[C@@H]1OC=C(C(=O)OC)[C@H]2CC=C(CO)C12 (stereo in doubt) [I-315, (1S,4aS,7aR)-7-(hydroxy-methyl)-1-(methylcarbamoyloxy)-1,4a,5,7a-tetrahydrocyclopenta [c] pyrane-4-carboxylic acid methylester]",8.6,36.4,–,–
CNC(=O)O[C@@H]1OC=C(C(N)=O)[C@H]2C[C@@H]3O[C@]3(C)[C@@H]12 [I-61],18.9,82.1,–,–
CNC(=O)O[C@@H]1OC=C(C(=O)Nc2nccs2)[C@H]2C[C@@H]3O[C@]3(C)[C@@H]12 [I-62],28.4,10.6,–,–
CNC(=O)O[C@@H]1OC=C(C(=O)NCc2nc3ccccc3[nH]2)[C@H]2C[C@@H]3O[C@]3(C)[C@@H]12 [I-63],41.7,14.2,–,–
CNC(=O)O[C@@H]1OC=C(C(=O)NCCS)[C@H]2C[C@@H]3O[C@]3(C)[C@@H]12 [I-64],5.2,9.4,–,–
CCOC(=O)CNC(=O)C1=CO[C@@H](OC(=O)NC)[C@H]2[C@@H]1C[C@@H]1O[C@]21C [I-65],32.4,73.4,–,–
C[C@]12O[C@H]1C[C@@H]1C(C(=O)O)=CO[C@@H](OC(=O)NCCCl)[C@@H]12 [I-66],19.7,30.5,–,–
C[C@]12O[C@H]1C[C@@H]1C(C(=O)O)=CO[C@@H](OC(=O)NCCCl)[C@@H]12 [I-67],–,–,19.7,29.5
C[C@]12O[C@H]1C[C@@H]1C(C(=O)N3CCN(CCO)CC3)=CO[C@@H](OC(=O)NCCCl)[C@@H]12 [I-68],9.2,65.6,–,–
C[C@@]12O[C@@H]1C[C@@H]1C(C(=O)O)=CO[C@@H](OC(=O)NCCCl)[C@@H]12 [I-69],18,18.8,–,–
COC(=O)C1=CO[C@@H](OC(N)=O)[C@@H]2C(C)=CC[C@H]12 [I-70],75.4,7.1,–,–
COC(=O)C1=CO[C@@H](OC(=O)N2CCN(CCO)CC2)[C@@H]2C(C)=CC[C@H]12 [I-71],4.1,25.4,–,–
CCCCCCNC(=O)O[C@@H]1OC=C(C(=O)OC)[C@H]2CC=C(C)[C@@H]12 [I-72],5.9,42.9,–,–
COC(=O)C1=CO[C@@H](OC(=O)NN2CCN(C)CC2)[C@@H]2C(C)=CC[C@H]12 [I-73],8.2,15.6,–,–
COC(=O)C1=CO[C@@H](OC(=O)NCc2ccc(Cl)c(Cl)c2)[C@@H]2C(C)=CC[C@H]12 [I-74],5.8,23.4,–,–
COC(=O)C1=CO[C@@H](OC(=O)NCc2ccccn2)[C@@H]2C(C)=CC[C@H]12 [I-75],4.3,11.7,–,–
COC(=O)C1=CO[C@@H](OC(=O)NCc2cccnc2)[C@@H]2C(C)=CC[C@H]12 [I-76],4.6,7.6,–,–
COC(=O)C1=CO[C@@H](OC(=O)NCc2ccc(F)cc2F)[C@@H]2C(C)=CC[C@H]12 [I-77],7.2,5.9,–,–

SMILES,inhibition at 320 µM (stock) [1] [%],inhibition at 320 µM (stock) (HUFEC) [%],"TFA (inhibition rate, %) [1] [%]",CMA Inhibition rate (%) (HUFEC; 24 hours)
COC(=O)C1=CO[C@@H](OC(=O)NCC2CCCO2)[C@@H]2C(C)=CC[C@H]12 (stereo partly shown) [I-78],5.1,23.4,–,–
COC(=O)C1=CO[C@@H](OC(=O)NCCc2ccccn2)[C@@H]2C(C)=CC[C@H]12 [I-79],4.7,13.7,–,–
COC(=O)C1=CO[C@@H](OC(=O)NCc2ccccc2)[C@@H]2C(C)=CC[C@H]12 [I-80],8.1,5.9,–,–
COC(=O)C1=CO[C@@H](OC(=O)N(C)Cc2ccccc2)[C@@H]2C(C)=CC[C@H]12 [I-81],8.3,31.2,–,–
COC(=O)C1=CO[C@@H](OC(=O)NCCc2ccccc2F)[C@@H]2C(C)=CC[C@H]12 [I-82],5.5,13.7,–,–
COC(=O)C1=CO[C@@H](OC(=O)NCc2ccc(OC)cc2)[C@@H]2C(C)=CC[C@H]12 [I-83],21.4,50,–,–
COC(=O)C1=CO[C@@H](OC(=O)NCCO)[C@@H]2C(C)=CC[C@H]12 [I-84],21.9,8.8,–,–
COC(=O)C1=CO[C@@H](OC(=O)N2CCOCC2)[C@@H]2C(C)=CC[C@H]12 [I-85],15.6,31,–,–
COC(=O)C1=CO[C@@H](OC(=O)N(C)CCN(C)C)[C@@H]2C(C)=CC[C@H]12 [I-86],5.2,9.9,–,–
COC(=O)C1=CO[C@@H](OC(=O)NCC(C)C)[C@@H]2C(C)=CC[C@H]12 [I-87],8.6,8,–,–
COC(=O)C1=CO[C@@H](OC(=O)NCC2CCCCC2)[C@@H]2C(C)=CC[C@H]12 [I-88],4.7,16.5,–,–
COC(=O)C1=CO[C@@H](OC(=O)NC2CCN(Cc3ccccc3)CC2)[C@@H]2C(C)=CC[C@H]12 [I-89],31.3,9.9,–,–
CCCN(C)C(=O)O[C@@H]1OC=C(C(=O)OC)[C@H]2CC=C(C)[C@@H]12 [I-90],22.8,4.3,–,–
COC(=O)C1=CO[C@@H](OC(=O)N2CC=CCC2)[C@@H]2C(C)=CC[C@H]12 [I-91],5.1,21.6,–,–
COC(=O)C1=CO[C@@H](OC(=O)NCCc2cccs2)[C@@H]2C(C)=CC[C@H]12 [I-92],15.2,8.1,–,–
COC(=O)C1=CO[C@@H](OC(=O)N(C)CC2OCCO2)[C@@H]2C(C)=CC[C@H]12 [I-93],2.4,5.8,–,–
COC(=O)C1=CO[C@@H](OC(=O)N2CCC(Cc3ccccc3)CC2)[C@@H]2C(C)=CC[C@H]12 [I-94],6.2,3.9,–,–
COC(=O)C1=CO[C@@H](OC(=O)Nc2ccc(F)cc2F)[C@@H]2C(C)=CC[C@H]12 [I-154],56.2,–,–,–
